From patent US9650339B2, “Inhibitors of histone demethylases” (Gilead Sciences, Inc., priority 2013, dated 2017) come the findings set out here.

The IC50 is the concentration needed to halve the response being measured.

One assay deals with T1, KDM3B (JMJD1B) (Homo sapiens, UniProt Q7LBC6).
T1 construct: 842-1761; host or cells: Bac (baculovirus system)
T1 sequence (Q7LBC6 842-1761): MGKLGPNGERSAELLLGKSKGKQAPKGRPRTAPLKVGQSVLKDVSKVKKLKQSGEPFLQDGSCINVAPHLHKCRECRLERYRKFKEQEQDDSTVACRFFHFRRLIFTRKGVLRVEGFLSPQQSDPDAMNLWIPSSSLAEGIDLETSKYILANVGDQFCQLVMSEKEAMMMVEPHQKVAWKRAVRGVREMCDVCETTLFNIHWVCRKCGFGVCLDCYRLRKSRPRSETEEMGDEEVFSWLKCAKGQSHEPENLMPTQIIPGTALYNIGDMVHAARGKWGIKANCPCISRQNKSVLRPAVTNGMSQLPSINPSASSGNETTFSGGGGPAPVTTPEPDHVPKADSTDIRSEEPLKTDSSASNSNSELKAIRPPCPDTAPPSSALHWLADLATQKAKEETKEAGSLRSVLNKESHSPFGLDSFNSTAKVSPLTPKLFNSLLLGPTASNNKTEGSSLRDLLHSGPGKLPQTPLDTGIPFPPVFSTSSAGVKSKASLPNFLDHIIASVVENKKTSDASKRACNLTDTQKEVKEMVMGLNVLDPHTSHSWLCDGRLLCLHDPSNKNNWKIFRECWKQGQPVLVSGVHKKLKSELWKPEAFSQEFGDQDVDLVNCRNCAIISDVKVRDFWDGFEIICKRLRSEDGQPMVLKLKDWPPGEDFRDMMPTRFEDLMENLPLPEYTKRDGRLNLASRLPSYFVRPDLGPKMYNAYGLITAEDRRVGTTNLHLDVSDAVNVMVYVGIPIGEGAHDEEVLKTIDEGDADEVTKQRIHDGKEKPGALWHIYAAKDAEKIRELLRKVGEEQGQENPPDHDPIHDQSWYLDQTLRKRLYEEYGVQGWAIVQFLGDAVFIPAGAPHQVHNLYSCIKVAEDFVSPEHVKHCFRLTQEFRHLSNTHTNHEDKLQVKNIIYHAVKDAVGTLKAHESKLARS
The experiment in a line: Histone lysine demethylase AlphaLISA assay, KDM3B. The class given is biochemical. As to conditions: read-out: KDM3B HDME Inhibition IC50. How it is done: Assays are performed analogously to the protocol described by PerkinElmer (Roy et al. PerkinElmer Technical Note: AlphaLISA #12, April 2011)
Enzymes are dissolved in enzyme buffer and incubated for 10 min before being added to 3% DMSO solutions of compounds in enzyme buffer. Incubated for another 10 minutes, before substrate solution is added and the reaction mixture is incubated at room temperature. 10 μL acceptor beads, suspended in Epigenetic Buffer (Perkin Elmer AL008) from stock, are added and the suspension is incubated in the dark at room temperature, before a suspension of streptavidin donor beads (Perkin Elmer 6760002) in Epigenetic Buffer is added. After incubation at room temperature in the dark the plates are read. […]
BK9M2: Biotin-ARTKQTAR(KMe2)STGGKAPRKQ-NH2 (AnaSpec 64359) […]
Substrate Solution: Substrate, 25 μM L-Asc, and 10 μM α-KG in Buffer A.
(In general: Alpha assays give light when donor and acceptor beads are brought close together.)

For a further assay, the target named is T2, KDM5B (PLU-1) (Homo sapiens, UniProt Q9UGL1).
T2 sequence (Q9UGL1 1-809): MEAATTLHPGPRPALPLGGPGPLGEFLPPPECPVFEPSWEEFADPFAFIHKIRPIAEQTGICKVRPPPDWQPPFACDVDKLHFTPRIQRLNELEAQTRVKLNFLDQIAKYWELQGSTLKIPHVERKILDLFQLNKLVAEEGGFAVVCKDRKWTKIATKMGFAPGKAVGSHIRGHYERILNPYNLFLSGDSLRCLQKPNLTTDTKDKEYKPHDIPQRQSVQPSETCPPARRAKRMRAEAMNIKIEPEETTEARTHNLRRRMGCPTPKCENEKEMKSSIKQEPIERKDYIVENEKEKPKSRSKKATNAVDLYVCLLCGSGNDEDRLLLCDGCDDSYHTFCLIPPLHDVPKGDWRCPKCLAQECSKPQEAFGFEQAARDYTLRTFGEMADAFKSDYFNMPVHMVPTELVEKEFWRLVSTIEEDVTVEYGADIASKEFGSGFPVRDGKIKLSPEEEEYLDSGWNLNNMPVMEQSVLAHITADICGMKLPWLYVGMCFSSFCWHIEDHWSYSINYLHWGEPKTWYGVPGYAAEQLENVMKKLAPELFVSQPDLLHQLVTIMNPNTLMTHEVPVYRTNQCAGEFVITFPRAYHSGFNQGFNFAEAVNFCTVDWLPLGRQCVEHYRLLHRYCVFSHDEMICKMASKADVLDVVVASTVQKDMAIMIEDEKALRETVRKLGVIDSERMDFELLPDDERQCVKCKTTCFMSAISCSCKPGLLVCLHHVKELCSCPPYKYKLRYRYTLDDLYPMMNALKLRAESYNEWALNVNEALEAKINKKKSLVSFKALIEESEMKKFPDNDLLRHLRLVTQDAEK
The assay is described as follows: Histone lysine demethylase AlphaLISA assay, KDM5B. The assay is classed as biochemical. As to conditions: read-out: KDM5B HDME Inhibition IC50. The essentials: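 Biotinylated methylated H3 peptides (K9, K4, K27 or K36 marks) served as substrate, with 25 μM L-Asc and 10 μM α-KG. Enzymes were preincubated 10 min, then exposed to compounds (3% DMSO solutions) 10 min; product detected by AlphaLISA acceptor and streptavidin donor beads at room temperature in dark.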

Turning to `CCN(CC)CCCCNCc1cc(CNC(=O)C(F)(F)F)ccn1` [Compound 1, N-{[2-({[4-(diethylamino)butyl]-amino}methyl)pyridin-4-yl]methyl}-2,2,2-trifluoroacetamide], the results for the IC50 at KDM3B (JMJD1B) and at KDM5B (PLU-1) were > 2500 nM and 250 to 2500 nM, respectively. Taken in the same sequence, the figures for `CN(C)CCCNCc1cc(CN)ccn1` [Compound 3, [2-({[3-(dimethylamino)propyl]-amino}methyl)pyridin-4-yl]methanamine] were > 2500 nM and 250 to 2500 nM. As for `CCN(CCN(C)C)C(=O)CNCc1cc(CN)ccn1` [Compound 4, 2-({[4-(aminomethyl)pyridin-2-yl]methyl}amino)-N-[2-(dimethylamino)ethyl]-N-ethylacetamide], the values for the half-inhibitory concentration (IC50) on KDM3B (JMJD1B) and at KDM5B (PLU-1) were > 2500 nM and < 250 nM, respectively.

`CCN(CC)CCCCNCc1cc(CN)ccn1` [Compound 5, [2-({[4-(diethylamino)butyl]-amino}methyl)pyridin-4-yl]methanamine]: the IC50 at KDM3B (JMJD1B) and on KDM5B (PLU-1) was > 2500 nM in each case. As for `CCN(CC)CCCCN(Cc1cc(CNC(=O)C(F)(F)F)ccn1)C(=O)C(F)(F)F` [Compound 6, N-[4-(diethylamino)butyl]-- 2,2,2-trifluoro-N-({4-[(trifluoroacetamido)-methyl]pyridin-2-yl}methyl)acetamide], the IC50 at KDM3B (JMJD1B) and on KDM5B (PLU-1) was > 2500 nM in each case.

Turning to `NCc1ccnc(CNCCCCN2CCC2)c1` [Compound 7, [2-({[4-(azetidin-1-yl)butyl]amino}methyl)-pyridin-4-yl]-methanamine], the IC50 is > 2500 nM at KDM3B (JMJD1B) and 250 to 2500 nM at KDM5B (PLU-1).

Consider `CN(C)CCCCCNCc1cc(CN)ccn1` [Compound 8, [2-({[5-(dimethylamino)pentyl]-amino}methyl)pyridin-4-yl]methanamine], for which the figures for the half-maximal inhibitory concentration (IC50) at KDM3B (JMJD1B) and at KDM5B (PLU-1) were > 2500 nM and < 250 nM, respectively.

On to `COc1ccccc1CN1CCC(NC(=O)CNCc2cc(CN)ccn2)CC1` [Compound 9, 2-({[4-(aminomethyl)pyridin-2-yl]methyl}amino)-N-{1-[(2-methoxyphenyl)methyl]-piperidin-4-yl}acetamide], for which the IC50 at KDM3B (JMJD1B) was > 2500 nM; at KDM5B (PLU-1) it was 250 to 2500 nM. For `CN(C)CCCCNCc1cc(CNC2CC2)ccn1` [Compound 10, N-{[2-({[4-(dimethylamino)butyl]-amino}methyl)pyridin-4-yl]methyl}-cyclopropanamine], the half-inhibitory concentration (IC50) at KDM3B (JMJD1B) and on KDM5B (PLU-1) was > 2500 nM each time. On to `CC1CCCCN1CCCNCc1cc(CNC2CC2)ccn1` (stereo not drawn) [Compound 11, N-{[2-({[3-(2-methylpiperidin-1-yl)propyl]amino}methyl)-pyridin-4-yl]methyl}-cyclopropanamine], for which the half-inhibitory concentration (IC50) was > 2500 nM at KDM3B (JMJD1B) and 250 to 2500 nM on KDM5B (PLU-1). Taken in the same sequence, the figures for `CCCNCc1cc(CNC2CC2)ccn1` [Compound 12, N-({2-[(propylamino)methyl]-pyridin-4-yl}methyl)-cyclopropanamine] were > 2500 nM and 250 to 2500 nM. With `CN(C)C(=O)CNCc1cc(CNCC#N)ccn1` [Compound 13, 2-{[(4-{[(cyanomethyl)amino]-methyl}pyridin-2-yl)methyl]amino}-N,N-dimethylacetamide], the half-inhibitory concentration (IC50) was > 2500 nM on KDM3B (JMJD1B) and 250 to 2500 nM at KDM5B (PLU-1). For `CN(C)C(=O)CNCc1cc(CNCCF)ccn1` [Compound 14, 2-{[(4-{[(2-fluoroethyl)amino]-methyl}pyridin-2-yl)methyl]amino}-N,N-dimethylacetamide], the half-maximal inhibitory concentration (IC50) at KDM3B (JMJD1B) was > 2500 nM; at KDM5B (PLU-1), 250 to 2500 nM. For `CN(C)CCNCc1ccnc(CNCC(=O)N(C)C)c1` [Compound 15, 2-({[4-({[2-(dimethylamino)ethyl]-amino}methyl)pyridin-2-yl]methyl}amino)-N,N-dimethylacetamide] the same measures were > 2500 nM and < 250 nM. For `c1ccc(CN2CCC[C@H]2CNCc2cc(CNCC3CC3)ccn2)cc1` [Compound 16, {[(2S)-1-benzylpyrrolidin-2-yl]methyl}[(4-{[(cyclopropylmethyl)-amino]methyl}pyridin-2-yl)methyl]amine] the same measures were > 2500 nM and 250 to 2500 nM. As for `CCN(CCN(C)C)C(=O)CNCc1cc(C2OCC(Cc3ccccc3)CN2C(=O)C(F)(F)F)ccn1` (stereo not drawn) [Compound 90, 2-[({4-[5-benzyl-3-(trifluoroacetyl)-1,3-oxazinan-2-yl]pyridin-2-yl}methyl)amino]-N-[2-(dimethylamino)-ethyl]-N-ethylacetamide], the half-maximal inhibitory concentration (IC50) on KDM5B (PLU-1) is < 250 nM.

`CCN(CCN(C)C)C(=O)CNCc1cc(C2OCC3(CC3)CN2C(=O)C(F)(F)F)ccn1` (stereo not drawn) [Compound 91, N-[2--(dimethylamino)-ethyl]-N-ethyl-2-[({4-[7-(trifluoroacetyl)-5-oxa-7-azaspiro[2.5]-octan-6-yl]pyridin-2-yl}methyl)amino]-acetamide]: the IC50 on KDM5B (PLU-1) was < 250 nM.

`CN(Cc1ccccc1F)C(=O)CNCc1cc(/C=N/CCO)ccn1` [Compound 92, N-[(2-fluorophenyl)methyl]-2-[({4-[[(2-hydroxyethyl)imino]-methyl]pyridin-2-yl}methyl)amino]-N-methylacetamide]: the IC50 at KDM5B (PLU-1) was 250 to 2500 nM. In the case of `OCC/N=C/c1ccnc(CNCCc2ccccc2OCc2ccccc2)c1` [Compound 93, 2-[({2-[({2-[2-(benzyloxy)phenyl]-ethyl}amino)methyl]-pyridin-4-yl}methylidene)-amino]ethan-1-ol], the IC50 at KDM5B (PLU-1) was > 2500 nM. For `CCN(CCC#N)C(=O)CNCc1cc(/C=N/CCO)ccn1` [Compound 94, N-(2-cyanoethyl)-N-ethyl-2-[({4-[[(2-hydroxyethyl)imino]-methyl]pyridin-2-yl}methyl)amino]-acetamide], the IC50 at KDM5B (PLU-1) is < 250 nM. Regarding `CC(C)C[C@H](NCc1cc(/C=N/CCO)ccn1)C(=O)N1CCCCC1` [Compound 95, (2S)-2-[({4-[[(2-hydroxyethyl)imino]-methyl]pyridin-2-yl}methyl)amino]-4-methyl-1-(piperidin-1-yl)pentan-1-one], at KDM5B (PLU-1), the 50% inhibitory concentration (IC50) is > 2500 nM. `CCN(CC)CCCCNC(=O)CNCc1cc(C=O)ccn1` [Compound 112, N-[4-(diethylamino)-butyl]-2-{[(4-formylpyridin-2-yl)methyl]amino}-acetamide]: the half-maximal inhibitory concentration (IC50) at KDM3B (JMJD1B) was > 2500 nM. Regarding `CCN(CC(C)(C)N(C)C)C(=O)CNCc1cc(C=O)ccn1` [Compound 118, N-[2-(dimethylamino)-2-methylpropyl]-N-ethyl-2-{[(4-formylpyridin-2-yl)methyl]amino}-acetamide], the half-inhibitory concentration (IC50) at KDM5B (PLU-1) was < 250 nM. On to `CN(CC(=O)N1CCCCC1)Cc1cc(C=O)ccn1` [Compound 120, 2-({methyl[2-oxo-2-(piperidin-1-yl)ethyl]amino}-methyl)pyridine-4-carbaldehyde], for which the 50% inhibitory concentration (IC50) on KDM5B (PLU-1) is > 2500 nM.
